Test results: PubChem BioAssay (NCI)
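Exposure lasted 48 hours, with cells grown in 96-well plates and compounds tested at five concentrations. GI50 marks 50% less growth. Definition used: TGI = concentration required for complete inhibition of growth.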

Experiments:
Assay in all cases: inhibition of tumour cell growth, NCI panel, 48 h
HCC-2998 colon = system: HCC-2998 colon
MCF7 breast = system: MCF7 breast
SK-MEL-28 melanoma = system: SK-MEL-28 melanoma
SF-539 CNS = system: SF-539 CNS
SK-OV-3 ovarian = system: SK-OV-3 ovarian
COLO 205 colon = system: COLO 205 colon
KM12 colon = system: KM12 colon
MALME-3M melanoma = system: MALME-3M melanoma
NCI-H226 lung = system: NCI-H226 lung
OVCAR-4 ovarian = system: OVCAR-4 ovarian
UO-31 renal = system: UO-31 renal
NCI-H522 lung = system: NCI-H522 lung
HT29 colon = system: HT29 colon
TK-10 renal = system: TK-10 renal
MDA-MB-435 = system: MDA-MB-435
MOLT-4 leukemia = system: MOLT-4 leukemia
UACC-257 melanoma = system: UACC-257 melanoma
NCI/ADR-RES ovarian = system: NCI/ADR-RES ovarian
A498 renal = system: A498 renal
OVCAR-3 ovarian = system: OVCAR-3 ovarian
SNB-75 CNS = system: SNB-75 CNS
DU-145 prostate = system: DU-145 prostate
NCI-H23 lung = system: NCI-H23 lung
PC-3 prostate = system: PC-3 prostate
K-562 leukemia = system: K-562 leukemia
A549 NSCLC = system: A549 NSCLC
IGROV1 ovarian = system: IGROV1 ovarian
SK-MEL-2 melanoma = system: SK-MEL-2 melanoma
SF-268 CNS = system: SF-268 CNS
MDA-MB-231 breast = system: MDA-MB-231 breast
NCI-H460 lung = system: NCI-H460 lung
MDA-MB-468 breast = system: MDA-MB-468 breast
OVCAR-8 ovarian = system: OVCAR-8 ovarian
CCRF-CEM leukemia = system: CCRF-CEM leukemia
SN12C renal = system: SN12C renal
RXF 393 renal = system: RXF 393 renal
T-47D breast = system: T-47D breast
SK-MEL-5 melanoma = system: SK-MEL-5 melanoma
SNB-19 CNS = system: SNB-19 CNS
U251 CNS = system: U251 CNS
HOP-62 NSCLC = system: HOP-62 NSCLC
HCT-15 colon = system: HCT-15 colon
SF-295 CNS = system: SF-295 CNS
ACHN renal = system: ACHN renal
M14 melanoma = system: M14 melanoma
UACC-62 melanoma = system: UACC-62 melanoma
HS 578T breast = system: HS 578T breast
SW-620 colon = system: SW-620 colon
786-0 renal = system: 786-0 renal
RPMI-8226 leukemia = system: RPMI-8226 leukemia
LOX IMVI melanoma = system: LOX IMVI melanoma
HCT-116 colon = system: HCT-116 colon
BT-549 breast = system: BT-549 breast
CAKI-1 renal = system: CAKI-1 renal
EKVX NSCLC = system: EKVX NSCLC
HL-60(TB) leukemia = system: HL-60(TB) leukemia
OVCAR-5 ovarian = system: OVCAR-5 ovarian
HOP-92 NSCLC = system: HOP-92 NSCLC

`CCN(CC)CCOc1ccc(Nc2ncc3cc(-c4ccc(O)c(C#N)c4)c(=O)n(C)c3n2)cc1` was tested, and the GI50 (HCC-2998 colon) was > 100 µM, the TGI (HCC-2998 colon) was > 100 µM and the GI50 (MCF7 breast) was 15.3 µM. It also gave a TGI (MCF7 breast) of 32.9 µM, a GI50 (SK-MEL-28 melanoma) of 17.2 µM and a TGI (SK-MEL-28 melanoma) of 31.5 µM. For the same compound, the GI50 (SF-539 CNS) was 17.8 µM, the TGI (SF-539 CNS) was 64.3 µM and the GI50 (SK-OV-3 ovarian) was > 100 µM. For the same compound, the TGI (SK-OV-3 ovarian) was > 100 µM, the GI50 (COLO 205 colon) was 25 µM and the TGI (COLO 205 colon) was > 100 µM. For the same compound, the GI50 (KM12 colon) was 28.3 µM, the TGI (KM12 colon) was > 100 µM and the GI50 (MALME-3M melanoma) was 15.1 µM. It also gave a TGI (MALME-3M melanoma) of 28.5 µM, a GI50 (NCI-H226 lung) of 13 µM and a TGI (NCI-H226 lung) of 53.4 µM. The GI50 (OVCAR-4 ovarian) was > 100 µM, the TGI (OVCAR-4 ovarian) was > 100 µM and the GI50 (UO-31 renal) was > 100 µM. The TGI (UO-31 renal) was > 100 µM, the GI50 (NCI-H522 lung) was 17.4 µM and the TGI (NCI-H522 lung) was 35 µM. For the same compound, the GI50 (HT29 colon) was 9.92 µM, the TGI (HT29 colon) was 41.3 µM and the GI50 (TK-10 renal) was > 100 µM. For the same compound, the TGI (TK-10 renal) was > 100 µM, the GI50 (MDA-MB-435) was 18.4 µM and the TGI (MDA-MB-435) was 36.5 µM. It also gave a GI50 (MOLT-4 leukemia) of 17.4 µM, a TGI (MOLT-4 leukemia) of 66.4 µM and a GI50 (UACC-257 melanoma) of 18.8 µM. For the same compound, the TGI (UACC-257 melanoma) was 37.9 µM, the GI50 (NCI/ADR-RES ovarian) was > 100 µM and the TGI (NCI/ADR-RES ovarian) was > 100 µM. For the same compound, the GI50 (A498 renal) was 62.6 µM, the TGI (A498 renal) was > 100 µM and the GI50 (OVCAR-3 ovarian) was > 100 µM. The TGI (OVCAR-3 ovarian) was > 100 µM, the GI50 (SNB-75 CNS) was 2.55 µM and the TGI (SNB-75 CNS) was > 100 µM. The GI50 (DU-145 prostate) was > 100 µM, the TGI (DU-145 prostate) was > 100 µM and the GI50 (NCI-H23 lung) was > 100 µM. The TGI (NCI-H23 lung) was > 100 µM, the GI50 (PC-3 prostate) was > 100 µM and the TGI (PC-3 prostate) was > 100 µM. For the same compound, the GI50 (K-562 leukemia) was 5.45 µM, the TGI (K-562 leukemia) was > 100 µM and the GI50 (A549 NSCLC) was > 100 µM. For the same compound, the TGI (A549 NSCLC) was > 100 µM, the GI50 (IGROV1 ovarian) was 68 µM and the TGI (IGROV1 ovarian) was > 100 µM. It also gave a GI50 (SK-MEL-2 melanoma) of 15.7 µM, a TGI (SK-MEL-2 melanoma) of 31.9 µM and a GI50 (SF-268 CNS) of 24 µM. The TGI (SF-268 CNS) was > 100 µM, the GI50 (MDA-MB-231 breast) was 19.3 µM and the TGI (MDA-MB-231 breast) was > 100 µM. For the same compound, the GI50 (NCI-H460 lung) was 37.5 µM, the TGI (NCI-H460 lung) was > 100 µM and the GI50 (MDA-MB-468 breast) was 15.6 µM. For the same compound, the TGI (MDA-MB-468 breast) was 30.2 µM, the GI50 (OVCAR-8 ovarian) was > 100 µM and the TGI (OVCAR-8 ovarian) was > 100 µM. The GI50 (CCRF-CEM leukemia) was 16.1 µM, the TGI (CCRF-CEM leukemia) was 53.5 µM and the GI50 (SN12C renal) was 62.3 µM. For the same compound, the TGI (SN12C renal) was > 100 µM, the GI50 (RXF 393 renal) was 3.28 µM and the TGI (RXF 393 renal) was 14.1 µM. It also gave a GI50 (T-47D breast) of 15.6 µM, a TGI (T-47D breast) of 38.9 µM and a GI50 (SK-MEL-5 melanoma) of 13.9 µM. For the same compound, the TGI (SK-MEL-5 melanoma) was 27.2 µM, the GI50 (SNB-19 CNS) was 25.8 µM and the TGI (SNB-19 CNS) was 57.3 µM. The GI50 (U251 CNS) was 18.6 µM, the TGI (U251 CNS) was 35.6 µM and the GI50 (HOP-62 NSCLC) was > 100 µM. For the same compound, the TGI (HOP-62 NSCLC) was > 100 µM, the GI50 (HCT-15 colon) was > 100 µM and the TGI (HCT-15 colon) was > 100 µM. For the same compound, the GI50 (SF-295 CNS) was > 100 µM, the TGI (SF-295 CNS) was > 100 µM and the GI50 (ACHN renal) was 49.3 µM. The TGI (ACHN renal) was > 100 µM, the GI50 (M14 melanoma) was 13.4 µM and the TGI (M14 melanoma) was 27.1 µM. For the same compound, the GI50 (UACC-62 melanoma) was 15.4 µM, the TGI (UACC-62 melanoma) was 29.3 µM and the GI50 (HS 578T breast) was 6.77 µM. The TGI (HS 578T breast) was 30.8 µM, the GI50 (SW-620 colon) was 55.4 µM and the TGI (SW-620 colon) was > 100 µM. For the same compound, the GI50 (786-0 renal) was 15 µM, the TGI (786-0 renal) was 29 µM and the GI50 (RPMI-8226 leukemia) was 26.7 µM. The TGI (RPMI-8226 leukemia) was > 100 µM, the GI50 (LOX IMVI melanoma) was 22.6 µM and the TGI (LOX IMVI melanoma) was > 100 µM. The GI50 (HCT-116 colon) was 30.7 µM, the TGI (HCT-116 colon) was > 100 µM and the GI50 (BT-549 breast) was 24.8 µM. The TGI (BT-549 breast) was 59.3 µM, the GI50 (CAKI-1 renal) was 48 µM and the TGI (CAKI-1 renal) was > 100 µM. The GI50 (EKVX NSCLC) was > 100 µM, the TGI (EKVX NSCLC) was > 100 µM and the GI50 (HL-60(TB) leukemia) was > 100 µM. For the same compound, the TGI (HL-60(TB) leukemia) was > 100 µM, the GI50 (OVCAR-5 ovarian) was > 100 µM and the TGI (OVCAR-5 ovarian) was > 100 µM. The GI50 (HOP-92 NSCLC) was 4.46 µM and the TGI (HOP-92 NSCLC) was 22.8 µM.
